Structures can show the parent of a compound that is named as a salt.
Assays:
[1] = target: T1, human adrenergic α1B receptor (Homo sapiens, UniProt P35368); assay: Determination of Ki values at adrenergic α1B receptor ([3H]-Prazosin radioligand binding); conditions: hα1B, Chem-1 cells, [3H]-Prazosin 1 nM; read-out: Ki Alpha1B
T1 construct: expressed in transfected cells; host or cells: Chem-1
T1 sequence (P35368 1-520): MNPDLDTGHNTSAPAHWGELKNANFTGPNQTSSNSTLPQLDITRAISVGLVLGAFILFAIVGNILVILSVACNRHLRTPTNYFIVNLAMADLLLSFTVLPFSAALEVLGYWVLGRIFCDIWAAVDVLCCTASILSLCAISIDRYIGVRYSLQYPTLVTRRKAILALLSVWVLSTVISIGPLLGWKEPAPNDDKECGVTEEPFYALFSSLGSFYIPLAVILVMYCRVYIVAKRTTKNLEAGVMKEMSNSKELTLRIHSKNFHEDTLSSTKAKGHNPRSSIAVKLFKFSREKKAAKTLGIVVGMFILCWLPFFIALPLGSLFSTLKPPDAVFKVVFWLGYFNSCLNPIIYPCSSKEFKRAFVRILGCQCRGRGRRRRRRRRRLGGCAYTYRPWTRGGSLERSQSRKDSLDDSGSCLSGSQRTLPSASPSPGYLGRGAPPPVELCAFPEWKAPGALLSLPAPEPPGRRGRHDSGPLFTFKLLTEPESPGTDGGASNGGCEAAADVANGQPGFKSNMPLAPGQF
Protocol: Example-47: Determination of Ki Values at Adrenergic α1B Receptor
• Receptor source: Recombinant mammalian cells (Chem-1) • Radioligand: [^3H]-Prazosin (77.4 Ci/mmol) • Final ligand concentration: 1 nM • Non-specific determinant: 0.1 mM Prazosin • Reference compound: Prazosin • Positive control: Prazosin Incubation conditions: Reactions were carried out in buffer with pH 7.4 containing 67 mM Tris-HCl, 67 μM EDTA, […] for 1 h at RT. The reaction was terminated by rapid vacuum filtration onto the glass fiber filters. Radioactivity trapped onto the filters was determined and compared to the control values in order to ascertain any interactions of the test compound(s) with cloned human adrenergic α1B receptor binding site.

[2] = Rodent pharmacokinetic study; assay type: in vivo, Male Wistar rats; conditions: male, Wistar, plasma, rat; for bioavailability: oral 3 mg/kg vs intravenous 1 mg/kg, read-out: F (Bioavailability)
Protocol: Example-49: Rodent Pharmacokinetic Study
Male Wistar rats (250±50 grams) were used as experimental animals. Animals were housed individually in polypropylene cages. Two days prior to study, male Wistar rats were anesthetized with isoflurane for surgical placement of jugular vein catheter. Rats were randomly divided for oral (3 mg/kg and 10 mL/kg as dose volume) and intravenous (1 mg/kg and 2.0 mL/kg as dose volume) dosing (n=3/group) and fasted overnight before oral dosing (p.o.). However, rats allocated to intravenous dosing food and water was provided ad libitum.
Intravenous formulation was prepared by using 5% Pharmasolve+45% Propylene Glycol+50% PEG 400 as vehicle. For Oral, formulation was prepared by using 0.25% Tween 80+99.75% of 1% (w/v) hydroxyethylcellulose solution as a vehicle. The dose formulations were prepared freshly on the day of dosing.
After dosing of animal, each time point a 200 μL of blood sample was collected through the jugular vein and replenished with an equivalent volume of normal saline. Collected blood sample was transferred into a labeled eppendorf tube containing 10 μL of sodium heparin (1000 IU/mL) as an anticoagulant. Typically blood samples were collected at following time points: 0.08, 0.25, 0.5, 1, 2, 4, 6, 8, and 24 h post dose. Blood was centrifuged at 4000 revolutions per minute (rpm) for 10 min. Plasma was separated and stored frozen at −80° C. until analysis. The concentrations of the test compounds were quantified in plasma by qualified LC-MS/MS method using suitable extraction technique in the calibration range around 1-2000 ng/mL in plasma. Study samples were analyzed using calibration samples in the batch and quality control samples spread across the batch.
Pharmacokinetic parameters Cmax, AUC0-t, t1/2, Clearance and Bioavailability (F) were calculated using standard non-compartmental model by using Phoenix WinNonlin 8.1 version Software package.

[3] = target: T2, human SERT (Homo sapiens, UniProt P31645); assay: Determination of Ki values at SERT receptor ([3H]-Citalopram SPA binding); conditions: hSERT, HEK293, [3H]-Citalopram 2 nM
T2 construct: expressed in transfected cells; host or cells: HEK293
Protocol: Example-46: Determination of Ki Values at SERT Receptor
• Receptor source: Recombinant mammalian cells (HEK293) • Radioligand: [^3H]-Citalopram (80.8 Ci/mmol) • Final ligand concentration: 2 nM • Non-specific determinant: 0.1 mM Venlafaxine • Reference compound: Venlafaxine • Positive control: Venlafaxine Incubation conditions: Reactions were carried out in buffer with pH 7.4 containing 50 mM Tris-HCl, 150 mM NaCl, 5 mM KCl and Scintillation proximity assay (SPA) beads (0.1 mg/well) for 3 h at RT. Radioactivity proximal to SPA beads was determined by scintillation proximity assay and compared to the control values in order to ascertain any interactions of the test compound(s) with cloned human SERT receptor binding site.

[4] = Rodent brain penetration study; assay type: in vivo, Male Wistar rats; conditions: male, Wistar, brain and plasma, po; rat, 3 mg/kg, p.o. @ 1 h; read-out: Rat Brain Penetration (Cbrain/Cplasma)
Protocol: Example-50: Rodent Brain Penetration Study Male Wistar rats (260±40 g) were used as experimental animals. Three animals were housed in each cage. Animals were given water and food ad libitum throughout the experiment and maintained on a 12 h light/dark cycle. Brain penetration was determined in discrete manner in rats. One day prior to dosing day, male Wistar rats were acclimatized and randomly grouped according to their weight. At each time point (0.50, 1 and 2 h) n=3 animals were used. The test compounds were suitably preformulated and administered orally at (free base equivalent) 3 mg/kg. Blood samples were removed via cardiac puncture by using isoflurane anesthesia. The animals were sacrificed to collect brain tissue. Plasma was separated and brain samples were homogenized and stored frozen at −20° C. until analysis. The concentrations of the test compounds in plasma and brain were determined using LC-MS/MS method. The test compounds were quantified in plasma and brain homogenate by qualified LC-MS/MS method using suitable extraction technique in the calibration range of 1-2000 ng/mL. Study samples were analyzed using calibration samples in the batch and quality control samples spread across the batch. Extent of brain-plasma ratio (Cbrain/Cplasma) was calculated

T2 sequence (P31645 whole entry): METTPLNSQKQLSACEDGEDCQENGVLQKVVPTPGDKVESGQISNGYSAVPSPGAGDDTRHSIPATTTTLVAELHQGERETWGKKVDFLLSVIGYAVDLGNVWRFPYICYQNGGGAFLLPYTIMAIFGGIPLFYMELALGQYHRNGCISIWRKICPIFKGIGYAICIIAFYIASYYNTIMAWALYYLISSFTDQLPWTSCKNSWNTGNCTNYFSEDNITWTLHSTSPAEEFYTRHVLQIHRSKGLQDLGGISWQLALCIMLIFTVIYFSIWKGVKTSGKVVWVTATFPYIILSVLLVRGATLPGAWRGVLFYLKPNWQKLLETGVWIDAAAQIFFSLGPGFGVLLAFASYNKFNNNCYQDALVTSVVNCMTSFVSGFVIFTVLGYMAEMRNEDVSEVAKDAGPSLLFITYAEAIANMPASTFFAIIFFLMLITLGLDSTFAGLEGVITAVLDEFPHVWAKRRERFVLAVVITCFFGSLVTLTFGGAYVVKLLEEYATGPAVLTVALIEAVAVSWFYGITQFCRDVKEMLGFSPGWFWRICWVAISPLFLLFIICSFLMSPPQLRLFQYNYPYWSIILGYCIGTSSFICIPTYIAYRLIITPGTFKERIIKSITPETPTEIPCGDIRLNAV

Structure (SMILES) | Ki [1] | bioavailability [2] | AUC(0-t) ([2]; intravenous (bolus), 1 mg/kg) | half-life ([2]; intravenous (bolus), 1 mg/kg) | AUC(0-t) ([2]; oral (gavage), 3 mg/kg) | Cmax ([2]; oral (gavage), 3 mg/kg) | Ki [3] | Kp at 1 h [4]
Cc1noc(-c2csc(OCCCN3CCN(c4nsc5ccccc45)CC3)n2)n1 [compound 12, 3-(4-{3-[4-(3-Methyl-[1,2,4]oxadiazol-5-yl)-thiazol-2-yloxy]-propyl}-piperazin-1-yl)-benzo[d]isothiazole oxalate] | 14.4 nM | 18 ± 4.3% | 467 ± 115 ng·h/mL | 2.59 ± 0.49 h | 250 ± 60 ng·h/mL | 279 ± 59.2 ng/mL | 157 nM | 2.09
Cc1nnc(-c2csc(OCCCN3CCN(c4nsc5ccccc45)CC3)n2)o1 [Example-2, 3-(4-{3-[4-(5-Methyl-[1,3,4]oxadiazol-2-yl)-thiazol-2-yloxy]-propyl}-piperazin-1-yl)-benzo[d]isothiazole oxalate] | 13.3 nM | 46 ± 2% | 575 ± 60.8 ng·h/mL | 1.98 ± 0.96 h | 795 ± 34.5 ng·h/mL | 724 ± 170 ng/mL | 80 nM | 1.25
